Where two headings read alike, the source gives them in different places.
Tests used:
Assay type in all cases: biochemical
Dopamine (DA) uptake = molecular target: T1, Dopamine (DA) uptake (Rattus norvegicus, UniProt P23977); test: Dopamine (DA) uptake inhibitory activity using rat brain synaptosome (corpus striatum); details: tritium-labeled DA 2 nM, 37° C. ten minutes, read-out: 50% Inhibitory concentration
T1 construct: The suspension was used as a crude synaptosome fraction; from tissue; host or cells: rat (male Wistar) corpus striatum, crude synaptosome fraction
Description: Measurement of Dopamine (DA) Uptake Inhibitory Activity of Test Compound Using Rat Brain Synaptosome
(§1) Male Wistar rats were decapitated, and their brains were removed and dissected to remove the corpus striatum. The separated corpus striatum was placed in a 20-fold weight of a 0.32 molarity (M) sucrose solution and homogenized with a potter homogenizer. The homogenate was centrifuged at 1000 g at 4° C. for 10 minutes, and the supernatant was further centrifuged at 20000 g at 4° C. for 20 minutes. […] The suspension was used as a crude synaptosome fraction.
Uptake reaction was performed using each well of a 96-well round-bottom plate and a 200 μl volume in total of a solution containing pargyline (final concentration: 10 μM) and ascorbic acid (final concentration: 0.2 mg/mil).
(§2) Specifically, a solvent, unlabeled DA, and serially diluted test compounds were separately added to the wells, and the synaptosome fraction was added in an amount 1/10 of the final volume to each well and preincubated at 37° C. for 10 minutes. Then, a tritium-labeled DA solution (final concentration: 2 nM) was added thereto to initiate uptake reaction at 37° C. Ten minutes later, the uptake reaction was terminated by suction filtration through a 96-well glass fiber filter plate. Furthermore, the filter was washed with a cold saline and then sufficiently dried. MicroScint-O (PerkinElmer Co., Ltd.) was added thereto, and the residual radioactivity on the filter was measured.
(§3) An uptake value obtained by the addition of only the solvent was defined as 100%, and an uptake value (nonspecific uptake value) obtained by the addition of the unlabeled DA (final concentration: 10 μM) was defined as 0%. A 50% inhibitory concentration was calculated from the test compound concentrations and inhibitory activities thereat.

Serotonin (5-HT) uptake = molecular target: T2, Serotonin (5-HT) uptake (Rattus norvegicus, UniProt P31652); test: Serotonin (5-HT) uptake inhibitory activity using rat brain synaptosome (frontal cortex); details: tritium-labeled 5-HT 8 nM, 37° C. 10 minutes
T2 construct: The suspension was used as a crude synaptosome fraction; from tissue; host or cells: rat (male Wistar) frontal cortex, crude synaptosome fraction
Description: Measurement of Serotonin (5-HT) Uptake Inhibitory Activity of Test Compound Using Rat Brain Synaptosome
as §1, with “frontal cortex.” for “corpus striatum.”, “frontal cortex” for “corpus striatum”
(§4) Uptake reaction was performed using each well of a 96-well round-bottom plate and a 200 μl volume in total of a solution containing pargyline (final concentration: 10 μM) and ascorbic acid (final concentration: 0.2 mg/ml).
as §2, with “5-HT,” for “DA,”, “5-HT” for “DA”, “8” for “2”, “10” for “Ten”
as §3, with “5-HT” for “DA”, “50%,” for “50%”

[1] = molecular target: Norepinephrine (NE) uptake (Rattus norvegicus, UniProt Q9WTR4); test: Norepinephrine (NE) uptake inhibitory activity using rat brain synaptosome (hippocampus)
Description: Measurement of Norepinephrine (NE) Uptake Inhibitory Activity of Test Compound Using Rat Brain Synaptosome
Male Wistar rats were decapitated, and their brains were removed and dissected to remove the hippocampus. The separated hippocampus was placed in a 20-fold weight of a 0.32 molarity (M) sucrose solution and homogenized with a potter homogenizer. The homogenate was centrifuged at 1000 g at 4° C. for 10 minutes, and the supernatant was further centrifuged at 20000 g at 4° C. for 20 minutes. The pellet was suspended in an incubation buffer (20 mM HEPES buffer (pH 7.4) containing 10 mM glucose, 145 mM sodium chloride, 4.5 mM potassium chloride, 1.2 mM magnesium chloride, and 1.5 mM calcium chloride). The suspension was used as a crude synaptosome fraction.
as §4
as §2, with “NE,” for “DA,”, “NE” for “DA”, “12” for “2”
as §3, with “NE” for “DA”

[2] = read-out: 50% Inhibitory concentration
[3] = tritium-labeled NE 12 nM, 37° C. ten minutes, read-out: 50% inhibitory concentration

T1 sequence (P23977 whole entry): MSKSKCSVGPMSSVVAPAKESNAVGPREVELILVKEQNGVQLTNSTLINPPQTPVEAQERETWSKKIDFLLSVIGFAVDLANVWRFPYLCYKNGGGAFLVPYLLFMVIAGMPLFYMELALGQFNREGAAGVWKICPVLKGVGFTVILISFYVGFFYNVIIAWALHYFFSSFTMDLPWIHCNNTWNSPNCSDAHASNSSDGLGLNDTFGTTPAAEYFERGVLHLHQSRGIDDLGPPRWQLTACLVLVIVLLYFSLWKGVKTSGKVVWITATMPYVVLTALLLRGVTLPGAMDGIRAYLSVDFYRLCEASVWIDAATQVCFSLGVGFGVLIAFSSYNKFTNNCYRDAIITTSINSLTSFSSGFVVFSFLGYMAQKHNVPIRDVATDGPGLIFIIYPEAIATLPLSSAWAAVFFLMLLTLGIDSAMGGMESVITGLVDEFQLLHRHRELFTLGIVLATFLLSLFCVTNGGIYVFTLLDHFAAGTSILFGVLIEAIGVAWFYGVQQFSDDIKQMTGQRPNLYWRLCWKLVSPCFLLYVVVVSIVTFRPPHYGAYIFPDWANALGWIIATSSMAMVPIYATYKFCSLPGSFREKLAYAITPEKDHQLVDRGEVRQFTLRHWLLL
T2 sequence (P31652 whole entry): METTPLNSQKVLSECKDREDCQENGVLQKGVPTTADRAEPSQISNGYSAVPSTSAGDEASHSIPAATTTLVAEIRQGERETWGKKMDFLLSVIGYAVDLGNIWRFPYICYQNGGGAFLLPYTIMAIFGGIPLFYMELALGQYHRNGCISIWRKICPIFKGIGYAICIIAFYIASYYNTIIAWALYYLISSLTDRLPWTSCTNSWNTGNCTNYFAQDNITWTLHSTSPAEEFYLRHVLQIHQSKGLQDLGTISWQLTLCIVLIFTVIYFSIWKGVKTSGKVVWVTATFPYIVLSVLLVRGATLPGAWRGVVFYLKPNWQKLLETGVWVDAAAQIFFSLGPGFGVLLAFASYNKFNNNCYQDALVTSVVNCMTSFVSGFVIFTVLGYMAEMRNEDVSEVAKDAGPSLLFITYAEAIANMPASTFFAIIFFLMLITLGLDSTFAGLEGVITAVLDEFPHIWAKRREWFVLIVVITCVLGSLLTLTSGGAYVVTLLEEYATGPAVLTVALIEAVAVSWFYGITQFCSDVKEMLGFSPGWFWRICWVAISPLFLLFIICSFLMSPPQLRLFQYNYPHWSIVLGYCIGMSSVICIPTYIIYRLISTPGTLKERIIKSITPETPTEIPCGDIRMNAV

SMILES	IC50 (Dopamine (DA) uptake)	IC50 (Serotonin (5-HT) uptake; [2])	IC50 [1, 3]	IC50 (Serotonin (5-HT) uptake; 50% Inhibitory concentration)	IC50 ([1]; read-out: 50% inhibitory concentration, tritium-labeled NE 12 nM, 37° C. ten minutes)
CC1(C)CN(c2ccc3[nH]c(C#N)cc3c2)[C@@H]2CCCC[C@@H]2N1 [Example 654]	9 nM	1.5 nM	1 nM	–	–
CC1(C)CN(c2csc3ccccc23)[C@@H]2CCCC[C@@H]2N1 [Example 717]	60.1 nM	4.2 nM	4.8 nM	–	–
CC1(C)CN(c2cccc3[nH]ncc23)[C@H]2CCCC[C@H]2N1 [Example 778]	4.9 nM	87.5 nM	4.2 nM	–	–
CC1(C)CN(c2ccc(F)c3[nH]ccc23)[C@H]2CCCC[C@H]2N1 [Example 780]	4.3 nM	6.5 nM	0.6 nM	–	–
CC1(C)CN(c2ccc3[nH]c(C#N)cc3c2)[C@H]2CCCC[C@H]2N1 [Example 781]	5.2 nM	6.2 nM	3 nM	–	–
CC1(C)CN(c2ccc(F)c3c2CCC3)[C@H]2CCCC[C@H]2N1 [Example 791]	161 nM	1.4 nM	0.7 nM	–	–
CC1(C)CN(c2ccc(O)cc2)[C@H]2CCCC[C@H]2N1 [Example 805]	83.8 nM	42.6 nM	30.4 nM	–	–
CC1(C)CN(c2csc3ccccc23)[C@H]2CCCC[C@H]2N1 [Example 841]	5.1 nM	28.1 nM	0.9 nM	–	–
CC1(C)CN(c2ccc3cc(O)ccc3c2)[C@H]2CCCC[C@@H]2N1 [Example 850]	7 nM	7.3 nM	1 nM	–	–
CC1(C)CN(c2ccc3cc(OC(F)F)ccc3c2)[C@H]2CCCC[C@@H]2N1 [Example 867]	85.7 nM	4.7 nM	11.7 nM	–	–
CC1(C)CN(c2cc(Cl)c3occc3c2)[C@H]2CCCC[C@@H]2N1 [Example 884]	52.8 nM	7.3 nM	4.8 nM	–	–
CC1(C)CN(c2ccc(F)c3[nH]ccc23)[C@H]2CCCC[C@@H]2N1 [Example 895]	19.9 nM	5.4 nM	3 nM	–	–
CC1(C)CN(c2ccc(O)c(Cl)c2)[C@H]2CCCC[C@@H]2N1 [Example 918]	42 nM	10 nM	0.8 nM	–	–
COc1cc2ccc(N3CC(C)(C)N[C@@H]4CCCC[C@H]43)cc2cc1C#N [Example 962]	69.5 nM	18.7 nM	31.9 nM	–	–
CC1(C)CN(c2ccc(OC(F)F)c3occc23)[C@@H]2CCCC[C@H]2N1 [Example 983]	173 nM	6.5 nM	47.6 nM	–	–
CC1(C)CN(c2ccc3[nH]c(C#N)cc3c2)[C@@H]2CCCC[C@H]2N1 [Example 993]	38.6 nM	4.8 nM	8.7 nM	–	–
CC1(C)CN(c2ccc(OC(F)F)c(Cl)c2)[C@@H]2CCCC[C@H]2N1 [Example 1026]	12.3 nM	2.4 nM	4.2 nM	–	–
c1cc(N2CC3(CCC3)N[C@H]3CCCC[C@@H]32)c2ccoc2c1 [Example 1047]	1.1 nM	0.7 nM	0.7 nM	–	–
Clc1ccc(N2CCN[C@H]3CCCC[C@@H]32)c2ccoc12 [Example 1083]	53.7 nM	5.1 nM	2.5 nM	–	–
C[C@@H]1CN(c2ccc3sccc3c2)[C@H]2CCCC[C@@H]2N1 [Example 1121]	29.9 nM	8.5 nM	0.7 nM	–	–
C[C@@H]1CN(c2ccc(F)c3occc23)[C@H]2CCCC[C@@H]2N1 [Example 1124]	49.3 nM	7.1 nM	0.8 nM	–	–
C[C@@H]1CN(c2ccc(F)c3ccccc23)[C@H]2CCCC[C@@H]2N1 [Example 1318]	83.5 nM	40.7 nM	6.6 nM	–	–
C[C@@H]1CN(c2ccc3ncsc3c2)[C@H]2CCCC[C@@H]2N1 [Example 1326]	91.8 nM	37.8 nM	1.8 nM	–	–
Cc1noc(-c2ccc(N3C[C@@H](C)N[C@H]4CCCC[C@@H]43)cc2)n1 [Example 1333]	73 nM	84.2 nM	39.6 nM	–	–
C[C@@H]1CN(c2ccc3ccc(C#N)cc3c2)[C@H]2CCCC[C@@H]2N1 [Example 1341]	113 nM	6.8 nM	42.7 nM	–	–
C[C@@H]1CN(c2ccc(OC(F)F)c(F)c2)[C@H]2CCCC[C@@H]2N1 [Example 1534]	215 nM	–	–	38.1 nM	4 nM

From patent US11273168B2, “Methods of treating anxiety by administering a substituted quinolone” (OTSUKA PHARMACEUTICAL CO., LTD., priority 2010, dated 2022)
